Counter-ions that a name gives are not always drawn. Like-named read-outs stand apart in the source and are kept apart here.
Experiments:
ALS(SOD1^G93A) mice = test: Post-onset oral administration in ALS(SOD1^G93A) mice: motor function, body weight, survival; format: in vivo
Method: In addition, congenic ALS(SOD1^G93A) transgenic mice on a B6 background were also generated by crossing B6SJL-TgN(SOD1-G93A)1Gur [ALS(SOD1^G93A)] males (Jackson Laboratory) to B6 females for more than 11 generations. Both congenic ALS mice were used throughout this study.
The lines were maintained as hemizygotes by mating ALS(SOD1^H46R) and ALS(SOD1^G93A) males with B6 females. Offspring were genotyped by PCR using genomic DNA from tail tissue. Mice were housed at 23°C with a 12 h light/dark cycle, in which water and food was available ad libitum. The condition of each animal was monitored weekly initially and then daily after disease onset. The lifespan was determined by the days from disease onset to the endpoint, in which mouse lost active and/or spontaneous movement. All animal experimental procedures were approved by the Institutional Animal Care and Use Committee at Tokai University.
WN1316 was dissolved in MQ water, and diluted with physiological saline. ALS(SOD1^H46R) transgenic mice were given WN1316 via gastric tube (CAT.No.4202, Fuchigami) at a dose of either 1 µg, 10 µg or 100 µg/5 ml/kg body weight. ALS(SOD1^G93A) transgenic mice were given 10 µg/kg WN1316. Animals simultaneously treated with physiological saline (vehicle group, 5 ml/kg) were used as controls.
To determine the onset of motor dysfunction in ALS(SOD1^H46R) transgenic mice, we adopted a balance beam test as previously described in detail. To determine the onset of motor dysfunction in ALS(SOD1^G93A) transgenic mice, we adopted both balance beam and grip strength tests. Grip strength test was assessed using a traction meter (BrainScience Idea Co., Ltd.). Each mouse was given three trials, and the highest limb strength score was recorded. For ALS(SOD1^G93A) transgenic mice, grip strength tests were started at 11 weeks of age and performed twice a week until an over 20% reduction compared with the initial limb strength score at 11 weeks of age was observed. Finally, a grade 3 in the balance beam test and over 20% reduction of limb strength score were defined as the sign of the disease onset in ALS(SOD1^G93A) transgenic mice.
The gross phenotypes were measured blindly. The body weight of each mouse was measured weekly initially and then daily after disease onset. Mice were assessed for gross behavior every week from 12 weeks of age in ALS(SOD1^H46R) mice and from 11 weeks of age in ALS(SOD1^G93A) mice until the endpoint. In particular, hind limb movement and rearing behavior of each animal were monitored weekly from 12 weeks of age until the end stage. The days from the disease onset to the endpoint were counted individually as the survival interval.
We assessed motor performance and coordination, and balance in the mice by the balance-beam test, vertical pole test, and footprint analysis as previously described in detail and grip strength test as described above. In brief, the balance-beam test was performed every day after the onset until mice were unable to stay on the bar. […] The highest vertical ascending distance was scored. […]
To evaluate the spontaneous motor activities in mice, we conducted cage activity and rearing performance tests by using SUPERMEX with infrared ray sensor monitor (Muromachi Kikai). Both cage activity and rearing performance were monitored for 2 consecutive nights starting at 18 weeks and 21 weeks of age in ALS(SOD1^H46R) mice and at 13 weeks, 17 weeks and 21 weeks of age in ALS(SOD1^G93A) mice. […]

[1] = Pharmacokinetics of WN-compounds in mice (brain and serum concentration, HPLC); format: in vivo, mouse (C57BL/6N); conditions: for Cmax: C57BL/6N mouse, oral 50 mg/kg body weight
Method: Wild type mice at 8 weeks (male, C57BL/6N) were used for the analysis of CPN-9, WN1303R, WN1312, WN1315 and WN1316 pharmacokinetics. CPN-9 was suspended in 0.5% carboxymethyl cellulose (CMC)-Na (carmellose sodium, Maruishi Pharmaceutical Co., Ltd.), while WN1303R, WN1312 and WN1316 were dissolved in Milli-Q purified water (MQ water) and WN1315 was dissolved in 0.25 N HCl. CPN-9 (100 mg/kg body weight) and the four WN-compounds (50 mg/kg body weight) were injected intragastrically (i.g.). After 15 min, 30 min, 1 h, 2 h, 4 h, 6 h, and 8 h, blood was collected from heart of each mouse anesthetized with 2% isoflurane by inhalation or 4% halothane in a mixture of N2O/O2 (70∶30). Mice were thereafter perfused transcardially with physiological saline containing 10% heparin under anesthesia, and the whole brain was removed. Each blood sample was centrifuged at 1,000×g for 10 min at 4°C, and the serum fraction was collected. The brain was frozen in liquid nitrogen, and was cryopreserved until use.
We mixed serum with deproteinization buffer (0.05 M H2SO4, 2.5 M K2CO3, and […]), and collected the organic layer after centrifugation at 1,500×g for 10 min. The organic layer was mixed with 0.05 M H2SO4, and then, after centrifugation at 1,500×g for 10 min, the water layer was collected. After the addition of methanol, each serum derived sample was subjected to HPLC.
Mouse whole brain was homogenized with acetonitrile and left at −80°C for 10 min. The supernatant was collected after centrifugation at 10,000×g for 10 min at 4°C and was dried under vacuum. The dried sample was re-dissolved in methanol and mixed with two volumes of 10 mM phosphate buffer (pH7.0), after which the supernatant was collected by centrifugation at 10,000×g for 10 min at 4°C and then left at −80°C for 10 min. To further remove debris, the supernatant was filtered (0.45 µm filter), centrifuged (at 10,000×g for 10 min at 4°C), filtered (0.22 µm filter) and finally centrifuged again. Each sample solution from brain was subjected to HPLC.
The concentrations of CPN-9 and WN1316 in the serum and brain samples were determined by HPLC on a CAPCELL PAK C18 column (SHISEIDO) with 50% acetonitrile (CPN-9), 40% acetonitrile (WN1316) or 45% acetonitrile (WN1303R, WN1312, and WN1315) in 10 mM phosphate buffer (pH 7.0).

Structure (SMILES): Cc1cc(C)c(N(C)CC(=O)Nc2nc(-c3ccccn3)c[nH]2)c(C)c1 [WN1316, 2-[mesityl(methyl)amino]-N-[4-(pyridin-2-yl)-1H-imidazol-2-yl] acetamide trihydrochloride]
- impact including weight gain or loss (ALS(SOD1^G93A) mice; 10 µg/kg/day p.o.): No impact
- post-onset life span (survival interval) (ALS(SOD1^G93A) mice; 10 µg/kg/day p.o., n = 8, mean ± SD (vehicle 57.9±6.0)): 66.1 ± 12.0 days
- balance beam test: duration from onset to the day the mouse was unable to stay on the bar (ALS(SOD1^G93A) mice; 10 µg/kg/day p.o., n = 8, mean ± SEM (vehicle 39.3±2.1)): 47.1 ± 3.0 days
- prolongation of post-onset survival (ALS(SOD1^G93A) mice; 10 µg/kg/day p.o., vs vehicle): 14%
- motor performance by footprint analysis (ALS(SOD1^G93A) mice; 10 µg/kg/day, 20 weeks of age (late symptomatic stage), vs vehicle): sustained motor performance
- AUC0–8: Brain ([1]; C57BL/6N mice, intragastric, 50 mg/kg, n = 4, mean ± SD): 38.9±5.7 µg⋅h/g
- brain AUC0–8 relative to the level observed with CPN-9 ([1]; WN1316 50 mg/kg vs CPN-9 100 mg/kg): about 39 fold
- Cmax ([1]; male, brain, read-out: Cmax in brain): 42.1 µM
- Kp ([1]; male, mouse, brain / serum, oral 50 mg/kg, C57BL/6N, read-out: brain AUC0–8 relative to serum levels): ~4
- AUC(0-t) ([1]; male, mouse, serum, po, C57BL/6N mice, intragastric, 50 mg/kg, n = 4, mean ± SD, read-out: AUC0–8: Serum): 13600 ± 700 ng·h/mL
- Cmax ([1]; male, serum, read-out: Cmax in blood): 9.78 µM
- BBB permeability (in words) ([1]; mouse, in vivo): prominent BBB permeability
- clearance in both brain and serum ([1]; oral 50 mg/kg, C57BL/6N): 8 h

Reference: PMC3909264, “A Novel Acylaminoimidazole Derivative, WN1316, Alleviates Disease Progression via Suppression of Glial Inflammation in ALS Mouse Model” (PLoS ONE, 2014)
